{
  "source": "patent US8765716B2",
  "about": "“Pharmaceutical composition containing docetaxel-cyclodextrin inclusion complex and its preparing process” (Meridian Laboratories, Inc., priority 2006, dated 2014)",
  "key": {"[1]": {"assay": "Inclusion solubilization test", "assay_type": "physicochemical", "conditions": "thermodynamic from solid, docetaxel solubility in pure water, 25° C.", "experimental": "Standard curve: 0.67 mg/ml docetaxel solution was prepared by dissolving docetaxel with ethanol, and diluted with pure water into […]˜20.1 μg/ml series solutions, then UV absorption value A was measured under 228 nm. A standard curve was plotted by A against concentration C (mg/ml) (A=13.881C+0.3577 (r=0.9998)).\nThe excessive docetaxel or inclusion in the pure water was oscillated for 72 h at 25° C.±1° C., filtered and placed still."}, "[2]": {"assay": "Solid inclusion stability, 5-day acceleration test (light, high temperature, high humidity), HPLC content", "assay_type": "physicochemical", "experimental": "(§1) HPLC chromatographic conditions: chromatographic column ODS Cig (250 mm×4.6 mm); mobile phase: water:acetonitrile (53:47); flow rate: 1.0 ml/min; detection wavelength: 230 nm; detection time: 30.00 min; detection sensitivity: 1.0000AUFS.\nSamples: docetaxel material; docetaxel/sulfobutyl-β-cyclodextrin inclusion (a, mass ratio of 1:17); docetaxel/hydroxypropyl-sulfobutyl-β-cyclodextrin inclusion (b, mass ratio of 1:17). Docetaxel materials and inclusions were divided into three portions of test samples equally and were subject to light, high temperature and high humidity acceleration tests respectively:\nSamples were put in a sealed transparent container and then placed in an illumination box equipped with fluorescent light of 4500±500LX illumination intensity for 5 days. Sampling inspection analysis was conducted, and the test results were compared with the samples of 0 day.\nSamples were placed in a clean sealed container at a temperature of 60° C. for 5 days. Sampling inspection analysis was conducted, and the test results were compared with the samples of 0 day.\nSamples were placed in a sealed container of constant humidity at temperature of 25° C. and relative humidity of 90±5% for 5 days. Sampling inspection analysis was conducted, and the test results were compared with the samples of 0 day."}, "[3]": {"assay": "Docetaxel stability test in solution (HPLC assay)", "assay_type": "physicochemical", "conditions": "normal saline solution", "experimental": "as §1\nUnder the aforesaid HPLC chromatographic conditions, some docetaxel raw materials; docetaxel/sulfobuty-β-cyclodextrin inclusion (a) with a mass ratio of 1:17 and docetaxel/hydroxypropy-sulfobuty-β-cyclodextrin inclusion (b) with a mass ratio of 1:17 were taken and dissolved with normal saline solution, diluted for 100 times after 30 min ultrasonic wave treatment, placed still, […]"}, "[4]": {"system": "tubulin", "conditions": "versus paclitaxel; cited from earlier work"}, "[5]": {"system": "advanced breast carcinoma", "conditions": "treatment of advanced breast carcinoma; cited from earlier work"}, "[6]": {"conditions": "cited from earlier work"}},
  "note": "Read-outs that look alike come from different tables or passages of the source.",
  "data": [
    {"smiles": "CC(=O)O[C@@]12CO[C@@H]1C[C@H](O)[C@@]1(C)C(=O)[C@H](O)C3=C(C)[C@@H](OC(=O)[C@H](O)[C@@H](NC(=O)OC(C)(C)C)c4ccccc4)C[C@@](O)([C@@H](OC(=O)c4ccccc4)[C@H]21)C3(C)C", "note": "(relative stereo) [Docetaxel, [2aR-(2aα,4β,4aβ,6β,9α,(αR*,βS*),11α,12α,12aβ,12bα)]-β-[[(1,1-dimethylethoxy)carbonyl]amino]-α-hydroxyphenyl propionic acid [12b-acetoxy-12-benzoyloxy-2a,3,4,4a,5,6,9,10,11,12,12a,12b-dodecahydro-4,6,11-trihydroxyl-4-a,8,13,13-tetramethyl-5-oxo-7,11-methylene-1H-pentacyclo-ene[3,4]benzo[1,2-b]tetraoxacyclo-9-base]acetate trihydrate]", "values": [
      {"measurement": "solubility at 72 h", "setting": "[1]", "result": 2.9, "unit": "µg/mL"},
      {"measurement": "Content (%) 0 day", "setting": "[2]; 0 day", "result": 99.675, "unit": "%"},
      {"measurement": "Content (%) Hight humitdity", "setting": "[2]; 25° C., relative humidity 90±5%, 5 days", "result": 83.877, "unit": "%"},
      {"measurement": "Content (%) High temperature", "setting": "[2]; 60° C., 5 days", "result": 87.859, "unit": "%"},
      {"measurement": "Content (%) Light", "setting": "[2]; 4500±500LX, 5 days", "result": 90.176, "unit": "%"},
      {"measurement": "Content (%) 0 h", "setting": "[3]; diluted 100 times, 0 h", "result": 99.675, "unit": "%"},
      {"measurement": "Content (%) 5 h", "setting": "[3]; diluted 100 times, 5 h", "result": 99.025, "unit": "%"},
      {"measurement": "Content (%) 10 h", "setting": "[3]; diluted 100 times, 10 h", "result": 97.381, "unit": "%"},
      {"measurement": "Content (%) 24 h", "setting": "[3]; diluted 100 times, 24 h", "result": 93.433, "unit": "%"},
      {"measurement": "Content (%) 96 h", "setting": "[3]; diluted 100 times, 96 h", "result": 86.384, "unit": "%"},
      {"measurement": "half-life", "setting": "[3]; in solution, read-out: half-life of sample decomposition in solution (converted)", "result": 15.1, "unit": "days"},
      {"measurement": "inhibitory activity of tubulin depolymerization relative to paclitaxel", "setting": "[4]", "result": "about 2 times"},
      {"measurement": "effective ratio", "setting": "[5]", "result": 49, "unit": "%"},
      {"measurement": "incidence rate of moderate and severe hypersusceptibility", "setting": "[6]; after injection", "result": 25.9, "unit": "%"},
      {"measurement": "incidence rate of moderate hypersusceptibility or more", "setting": "[6]; dosage 75 mg/m^2", "result": 31, "unit": "%"},
      {"measurement": "incidence rate of moderate hypersusceptibility or more", "setting": "[6]; dosage 100 mg/m^2", "result": 41.3, "unit": "%"},
      {"measurement": "injection-part reaction rate", "setting": "[6]; in vivo", "result": "up to 13.3%"}
    ]}
  ]
}
